Assay results taken from patent publication US8227453B2, “Pharmaceutical formulations and uses thereof in the treatment of female sexual dysfunction” (Emotional Brain B.V., priority 2004, dated 2012).
“Also recorded” adds a separate entry of the source.

Legend:
[1] = tested on: sexually functional women; conditions: cited from earlier work
[2] = tested on: women suffering from FSD; assay: Vaginal Pulse Amplitude (VPA) response to erotic film in women with FSD, placebo controlled cross-over; assay type: in vivo, human; conditions: for Vaginal Pulse Amplitude during exposure to erotic stimuli (vaginal arousability) compared with placebo: testosterone 0.5 mg sublingual, Vardenafil 10 mg, four hours after medication; for increase in VPA between neutral and erotic films, before medication (trial 1) versus after medication (trial 4): within drug condition
Text: Fourteen women with a heterosexual orientation (mean age: 40.6 years; sd: 10.4; premenopausal n=8, postmenopausal n=6) who have been experiencing FSD (i.e., low sexual desire, low sexual arousal or decreased orgasm potency) for at least six months prior to study entry, participated in this study. Subjects in fertile age used contraceptives (IUDs, sterilization, oral contraceptives except contraceptives containing anti-androgens). A pregnancy test was part of the procedure. Subjects were interviewed and examined by a gynecologist to exclude pregnancy or breast feeding, vaginal infections, major operations to the vagina and/or vulva or unexplained gynecological complaints. […] Cardiovascular condition was tested and ECG was checked for significant abnormalities. Standard blood chemistry and hematology tests were performed. […] Subjects could not make appointments during their period of menstruation.
Each subject underwent the four different drug treatments (i.e., PDE5 inhibitor, testosterone, PDE5 inhibitor+testosterone and placebo) at four separate experimental days. The four experimental days were separated by at least a three-day period.
During each day of drug manipulation, subjects underwent the following measurements: • −1:00 hours: Emotional Stroop Task • −0:15 hours: Trial 1 • 0:00 hours: Intake drugs • 0:05 hours: Trial 2 • 2:45 hours: Trial 3 • 4:15 hours: Trial 4
Each day started with a physical examination (measurements of vital signs, blood pressure, heart rate, temperature and respiration rate). Blood samples (8 ml) were taken for hormone analyses. Subjects then were seated in the sound attenuated, dimly lit experimental room. In order to make this room less “sterile,” geographic posters were hung on the walls and an air perfumer was placed behind the subjects. The subjects then executed the emotional Stroop task (15 minutes). The experimenter brought the vaginal probe and the subject was left alone in the room to insert the probe. The subject was instructed to sit as quietly as possible while viewing the film fragments. A ten-minute neutral fragment was followed by a five-minute erotic film fragment. After these baseline measurements, the subjects took medication: testosterone (0.5 mg or placebo) sublingually, with cyclodextrins as carrier and Vardenafil (10 mg or placebo) hidden in a capsule. The medication was followed by another set of neutral (five minutes) and erotic (five minutes) film fragments. The subjects removed the vaginal probe and were taken to a waiting room for a pause of two hours. During this pause, they could consume their lunch. Unlimited coffee and tea were available. This pause was followed by a third set of neutral (five minutes) and erotic (five minutes) film fragments.
Again subjects had to wait for two hours so that the last VPA measurement was taken four hours after medication. This last film-trial (neutral, erotic film fragments) was followed by a second presentation of the emotional Stroop. The experimental day ended with a short physical examination including drawing of a blood sample (8 ml for hormone analyses) and collection of AE and SAE.
During the testosterone condition, one subject became nauseated watching the erotic film and decided not to participate further that day. For the psychophysiological evaluation, the VPA (Vaginal Pulse Amplitude) is used. The VPA reflects phasic changes in the blood volume corresponding with each heartbeat; higher levels indicate higher levels of blood flow. The dependent variable used is the amplitude of the pulse wave. Before the mean VPA was calculated, the raw signal (sample rate was 20 Hz) was digitally bandpass filtered with a Butterworth filter (−3 dB cutoff frequency range 0.7-1.5 Hz; 40 dB down/octave). Movement artifacts were detected by visual inspection of the signal and removed manually. Hereafter, the amplitude was measured as the distance between the top and bottom of a pulse wave. […]

[3] = tested on: women suffering from Female Sexual Dysfunction; assay: Sexual desire, genital sensations and subjective sexual arousal in women with FSD; assay type: in vivo, human
Text: Attentional engagement is an important function for normal human sexuality.

[4] = tested on: healthy sexually functional women; parameters: species or system human; conditions: in vivo
Experimental: In a recently conducted experiment (not published) in healthy sexually functional women, we used a delayed measurement design in which subjects ingested one dosage of testosterone (0.5 mg sublingual) or placebo and after four hours, underwent fMRI while watching neutral and erotic videos. Hereafter, subjects were conducted to a laboratory where their VPA in response to neutral and erotic videos was measured. […] Because of testosterone's delayed effect on enhancing VPA, we expected enhancement of these “erotic” structures in this fMRI study.

[5] = tested on: women suffering from FSD
Text: An unmasked and a masked version of the Emotional Stroop Task comparing color-naming latencies on neutral and erotic words were used. In both the unmasked and the masked condition, eight erotic and neutral words are presented in different colors (i.e., red, green, blue and yellow). An extra set of stimuli consisting of letter strings was used for practice trials. Subjects were instructed to ignore the content of the words and to name the color of the words as quickly as possible (in the masked condition, the color of the mask has to be named). Each trial consisted of a fixation point which is shown for 750 ms, followed by the target stimulus (the colored neutral or erotic word). In the masked condition, the word picture is presented for about 24 ms and then masked by randomly cut, reassembled letters in the same color. A microphone connected to a voice-level detector was placed in front of the subject. Initiation of vocal response was registered by the computer's clock and terminated the target presentation (with a no-response maximum of 3000 ms). Thirty-two neutral words and thirty-two erotic words were presented blocked. The same words were used for each test, however, the sequence of words and colors differed all eight times this task was used.
To test for associations with changes in attentional processes, we used the StroopRT as the measurement point. StroopRT is the difference in mean reaction times on color naming of the neutral and the sexual words.

[6] = Plasma level of testosterone after sublingual administration; conditions: single sublingual dose; of short duration
[7] = tested on: healthy sexually functional women; conditions: 0.5 mg sublingual
Experimental: In a recently conducted experiment (not published) in healthy sexually functional women, we used a delayed measurement design in which subjects ingested one dosage of testosterone (0.5 mg sublingual) or placebo and after four hours, underwent fMRI while watching neutral and erotic videos. Hereafter, subjects were conducted to a laboratory where their VPA in response to neutral and erotic videos was measured.

[8] = tested on: sexually functional women; assay: Vaginal responsiveness to erotic films after a single sublingual dose in sexually functional women
[9] = tested on: hypogonadotropic hypogonadal females; assay: Vaginal responsiveness during oral testosterone substitution; assay type: in vivo, human; conditions: dosed each morning
Experimental: An important aspect of sexual motivation is physiological sexual responding. […] In both studies, subjects received testosterone each morning, but patients in the first experiment were tested in the afternoon and patients in the second experiment in the morning. The different outcomes on physiological responding between these experiments may be caused by a time-dependent effect of testosterone on vaginal arousal.

[10] = typical value; cited from earlier work

CCCc1nn(C)c2c(=O)[nH]c(-c3cc(S(=O)(=O)N4CCN(C)CC4)ccc3OCC)nc12.O=C(O)CC(O)(CC(=O)O)C(=O)O [sildenafil, 1-[[3-(6,7-dihydro-1-methyl-7-oxo-3-propyl-1Hpyrazolo[4,3-d]pyrimidin-5-yl)-4-ethoxyphenyl]sulfonyl]-4-methylpiperazine citrate]
sexual performance [1]: improves

C[C@]12CC[C@H]3[C@@H](CCC4=CC(=O)CC[C@@]43C)[C@@H]1CC[C@@H]2O [testosterone, 17-β-hydroxyandrost-4-en-3-one]
VPA to erotic stimuli over trials, sexually abused subjects ([2]; women with FSD sexually abused during childhood, with or without testosterone): no increase
VPA response to the erotic film, not-abused subjects, testosterone versus no-testosterone conditions ([2]; women with FSD, not abused): increases
increase in VPA from before to after measurement, drug conditions containing the steroid versus without the steroid ([2]; women with FSD, interaction F(1.12)=5.75, p<0.04, pooled steroid conditions): significantly higher
Vaginal Pulse Amplitude during exposure to erotic stimuli (vaginal arousability) compared with placebo ([2]; women with FSD): no effect; also recorded: insufficient for a significant increase
increase in VPA between neutral and erotic films, before medication (trial 1) versus after medication (trial 4) ([2]; women with FSD): insignificant
sexual desire, genital sensations / subjective sexual arousal compared with placebo [3]: no effect
activation of septum and left dorsolateral PFC (fMRI) [4]: very significant increase
StroopRT (attention for sexual stimuli), not-abused subjects ([5]; masked condition, decrease = attention for sexual stimuli increases): decreases
StroopRT (attentional bias for sexual stimuli), sexually abused subjects ([5]; masked condition, increase = bias away from sexual stimuli): increases
attentional engagement (or withdrawal) for sexual cues, as compared with placebo and/or a PDE5 inhibitor ([5]; women with FSD): increase
plasma levels of testosterone after intake [6]: sharp increase
relative change in VPA as compared with the placebo, after fMRI procedure [7]: smaller
vaginal responsiveness when exposed to visual sexual stimuli ([8]; eight sexually functional women, single sublingual dose versus placebo): striking increase
time lag between plasma testosterone peak and increase in vaginal responsiveness ([8]; sexually functional women, sublingual): three to four and a half

CCCCCCCCCCC(=O)O[C@H]1CC[C@H]2[C@@H]3CCC4=CC(=O)CC[C@]4(C)[C@H]3CC[C@]12C [testosterone undecanoate]
vaginal responsiveness, first group ([9]; 40 mg orally per day, eight weeks, tested in the afternoon): enhanced
vaginal responsiveness, another group (unpublished data) ([9]; tested in the morning): not found

CCCc1nc(C)c2c(=O)nc(-c3cc(S(=O)(=O)N4CCN(CC)CC4)ccc3OCC)[nH]n12.Cl [Vardenafil, piperazine, 1-[[3-(1,4-dihydro-5-methyl-4-oxo-7-propylimidazo[5,1-f][1,2,4]triazin-2-yl)-4-ethoxyphenyl]sulfonyl]-4-ethyl-, monohydrochloride]
Vaginal Pulse Amplitude during exposure to erotic stimuli (vaginal arousability) compared with placebo ([2]; women with FSD, listed as PDE5 inhibitor, monohydrochloride): no effect
Vaginal Pulse Amplitude during exposure to erotic stimuli (vaginal arousability) compared with placebo ([2]; women with FSD, monohydrochloride): did not lead to a significant difference
increase in VPA between neutral and erotic films, before medication (trial 1) versus after medication (trial 4) ([2]; women with FSD): insignificant
sexual desire, genital sensations / subjective sexual arousal compared with placebo [3]: no effect
time to peak plasma concentration after administration [10]: about one
